Laboratory results from article PMC10114720.

Assays:
[1] = PDMS sheets cleaned by Soxhlet with ethyl acetate; batch shaking method with a mixture of all chemicals at several PDMS-mass to water-volume ratios and spiked levels; vials shaken on an orbital shaker at room temperature in the dark, sampled at two equilibration times; PDMS extracts and water quantified by LC-HRMS (Orbitrap); D from the slope of C_PDMS on C_w or their ratio; value is the mean over that pH's experiments (individual experiments in the SI's concentrations table), sd is the table's stdev; settings: PDMS (polydimethylsiloxane silicone sheet), phosphate buffer at three target pH values (the paper's methods)
[2] = neutral chemical: log K is the mean of log D over all measurements at the three pH values (D shown independent of pH, paired t-test); sd is the table's stddev. PDMS sheets cleaned by Soxhlet with ethyl acetate; batch shaking method with a mixture of all chemicals at several PDMS-mass to water-volume ratios and spiked levels; vials shaken on an orbital shaker at room temperature in the dark, sampled at two equilibration times; PDMS extracts and water quantified by LC-HRMS (Orbitrap); D from the slope of C_PDMS on C_w or their ratio; settings: PDMS (polydimethylsiloxane silicone sheet); phosphate buffer at three target pH values (the paper's methods)
[3] = monoprotic acid or base: log K of the neutral species extrapolated from the linear regression of D on the neutral fraction (from pKa and pH; the paper's eq. for monoprotic IOCs), the slope giving K of the neutral species; replicates column holds the table's 95% confidence limits. PDMS sheets cleaned by Soxhlet with ethyl acetate; batch shaking method with a mixture of all chemicals at several PDMS-mass to water-volume ratios and spiked levels; vials shaken on an orbital shaker at room temperature in the dark, sampled at two equilibration times; PDMS extracts and water quantified by LC-HRMS (Orbitrap); D from the slope of C_PDMS on C_w or their ratio; settings: PDMS (polydimethylsiloxane silicone sheet); phosphate buffer at three target pH values (the paper's methods)

Row | SMILES | log D PDMS/w (apparent distribution ratio at the stated pH) ([1]; pH 3) | log D PDMS/w (apparent distribution ratio at the stated pH) ([1]; pH 7.4) | log D PDMS/w (apparent distribution ratio at the stated pH) ([1]; pH 11.5) | log K PDMS/w (neutral species) [2] | log K PDMS/w (neutral species) [3]
1 | CN(C)c1ccc(C(=O)c2ccc(N(C)C)cc2)cc1 | 2.372 log units; D and K as the pape | 2.263 log units; D and K as the pape | 1.409 log units; D and K as the pape | 2.057 log units; D and K as the pape | –
2 | Cc1cccc(C)c1N(Cn1cccn1)C(=O)CS(C)=O (centres unmarked) | 0.5745 log units; D and K as the pape | 0.5892 log units; D and K as the pape | 0.6192 log units; D and K as the pape | 0.5949 log units; D and K as the pape | –
3 | CNC(=O)/C(=N/OC)c1ccccc1COc1cc(C)ccc1C | 2.432 log units; D and K as the pape | 2.361 log units; D and K as the pape | 2.397 log units; D and K as the pape | 2.396 log units; D and K as the pape | –
4 | CCCN(CCOc1c(Cl)cc(Cl)cc1Cl)C(=O)NC=O | 2.492 log units; D and K as the pape | 2.482 log units; D and K as the pape | – | 2.487 log units; D and K as the pape | –
5 | O=P(c1ccccc1)(c1ccccc1)c1ccccc1 | 2.588 log units; D and K as the pape | 2.511 log units; D and K as the pape | 2.589 log units; D and K as the pape | 2.562 log units; D and K as the pape | –
6 | CN(C)C(=O)Nc1ccc(Cl)c(Cl)c1 | 1.406 log units; D and K as the pape | 1.371 log units; D and K as the pape | 1.462 log units; D and K as the pape | 1.409 log units; D and K as the pape | –
7 | c1ccc2sc(N3CCOCC3)nc2c1 | 1.704 log units; D and K as the pape | 1.897 log units; D and K as the pape | 1.881 log units; D and K as the pape | – | 2.029 log units; D and K as the pape
8 | Cc1nccn1CC1CCc2c(c3ccccc3n2C)C1=O (centres unmarked) | -0.92 log units; D and K as the pape | 1.409 log units; D and K as the pape | 2.124 log units; D and K as the pape | – | 2.203 log units; D and K as the pape
9 | NC(=O)N1c2ccccc2C(O)C(O)c2ccccc21 (centres unmarked) | -0.08 log units; D and K as the pape | -0.44 log units; D and K as the pape | -0.57 log units; D and K as the pape | – | 0.07041 log units; D and K as the pape
10 | NC(=O)/N=C1\SCCN1Cc1ccc(Cl)nc1 | 0.2411 log units; D and K as the pape | 0.3692 log units; D and K as the pape | 0.4142 log units; D and K as the pape | – | 0.4822 log units; D and K as the pape
11 | CO/C=C(/C(=O)O)c1ccccc1Oc1cc(Oc2ccccc2C#N)ncn1 | 1.162 log units; D and K as the pape | -0.4633 log units; D and K as the pape | -0.695 log units; D and K as the pape | – | 1.355 log units; D and K as the pape
12 | CCN(CC)c1ccc2c(C)cc(=O)oc2c1 | 2.535 log units; D and K as the pape | 2.797 log units; D and K as the pape | 2.809 log units; D and K as the pape | – | 2.913 log units; D and K as the pape
13 | O=C(O)CCC(=O)c1ccc(F)cc1 | -0.02167 log units; D and K as the pape | – | – | – | 0.05461 log units; D and K as the pape
14 | c1ccc2c(c1)[nH]c1ccncc12 | -0.445 log units; D and K as the pape | 2.315 log units; D and K as the pape | 2.443 log units; D and K as the pape | – | 2.458 log units; D and K as the pape
15 | Clc1ccccc1C(c1ccccc1)(c1ccccc1)n1ccnc1 | 2.324 log units; D and K as the pape | 4.388 log units; D and K as the pape | 4.335 log units; D and K as the pape | – | 4.471 log units; D and K as the pape
16 | Clc1ccc(COC(Cn2ccnc2)c2ccc(Cl)cc2Cl)c(Cl)c1 (centres unmarked) | 2.616 log units; D and K as the pape | 4.581 log units; D and K as the pape | 4.53 log units; D and K as the pape | – | 4.599 log units; D and K as the pape
17 | CC(C)(Oc1ccc(CCNC(=O)c2ccc(Cl)cc2)cc1)C(=O)O | 1.054 log units; D and K as the pape | -0.64 log units; D and K as the pape | – | – | 1.311 log units; D and K as the pape
18 | CCCCc1nc(Cl)c(CO)n1Cc1ccc(-c2ccccc2-c2nn[nH]n2)cc1 | 0.8893 log units; D and K as the pape | -0.01 log units; D and K as the pape | -0.67 log units; D and K as the pape | – | 1.068 log units; D and K as the pape
19 | CCOC(=O)CC(O)(CC(=O)OCC)C(=O)OCC | 1.101 log units; D and K as the pape | 1.143 log units; D and K as the pape | – | – | 0.9455 log units; D and K as the pape
20 | CC(C)C(=O)Nc1ccc([N+](=O)[O-])c(C(F)(F)F)c1 | 1.476 log units; D and K as the pape | 1.423 log units; D and K as the pape | – | – | 1.525 log units; D and K as the pape
21 | c1ccc2nc3ccccc3cc2c1 | 0.945 log units; D and K as the pape | 2.315 log units; D and K as the pape | 2.167 log units; D and K as the pape | – | 2.366 log units; D and K as the pape
22 | CCOC(=O)c1ccc(N)cc1 | 0.4988 log units; D and K as the pape | 0.4322 log units; D and K as the pape | 0.4489 log units; D and K as the pape | – | 0.5546 log units; D and K as the pape
23 | Clc1cccc(Cl)c1NC1=NCCN1 | 0.07 log units; D and K as the pape | 1.56 log units; D and K as the pape | – | – | 2.618 log units; D and K as the pape
24 | CCOC(=O)c1ccc(N(C)C)cc1 | 2.216 log units; D and K as the pape | 2.266 log units; D and K as the pape | 2.184 log units; D and K as the pape | – | 2.315 log units; D and K as the pape
